Active and inactive are the calls of the source. No cut-off for these calls is given here.
Experiments:
Histone deacetylase 1 = Histone deacetylase 1 (Homo sapiens, UniProt Q13547); assay: Inhibition of HDAC1 (unknown origin) using p53 (379 to 382 residues) (RHKK(Ac-AMC) as fluorogenic substrate incubated for 1 hrs by fluorescence based assay
[1] = Binding affinity to SNAI1 (unknown origin) assessed as dissociation constant; parameters: species or system Homo sapiens
CCRF-CEM = assay: Antiproliferative activity against human CCRF-CEM cells assessed as growth inhibition incubated for 72 hrs by luminescence assay; type: functional
A549 = assay: Antiproliferative activity against human A549 cells assessed as growth inhibition incubated for 72 hrs by luminescence assay; type: functional
EKVX = assay: Antiproliferative activity against human EKVX cells assessed as growth inhibition incubated for 72 hrs by luminescence assay; type: functional
NCI-H226 = assay: Antiproliferative activity against human NCI-H226 cells assessed as growth inhibition incubated for 72 hrs by luminescence assay; type: functional
NCI-H522 = assay: Antiproliferative activity against human NCI-H522 cells assessed as growth inhibition incubated for 72 hrs by luminescence assay; type: functional
HCT-116 [2] = assay: Antiproliferative activity against human HCT-116 cells assessed as growth inhibition incubated for 72 hrs by luminescence assay; type: functional
HCT-15 = assay: Antiproliferative activity against human HCT-15 cells assessed as growth inhibition incubated for 72 hrs by luminescence assay; type: functional
KM12 = assay: Antiproliferative activity against human KM12 cells assessed as growth inhibition incubated for 72 hrs by luminescence assay; type: functional
SF-295 = assay: Antiproliferative activity against human SF-295 cells assessed as growth inhibition incubated for 72 hrs by luminescence assay; type: functional
SNB-75 = assay: Antiproliferative activity against human SNB-75 cells assessed as growth inhibition incubated for 72 hrs by luminescence assay; type: functional
U-251 = assay: Antiproliferative activity against human U-251 cells assessed as growth inhibition incubated for 72 hrs by luminescence assay; type: functional
MDA-MB-435 = assay: Antiproliferative activity against human MDA-MB-435 cells assessed as growth inhibition incubated for 72 hrs by luminescence assay; type: functional
SK-MEL-2 = assay: Antiproliferative activity against human SK-MEL-2 cells assessed as growth inhibition incubated for 72 hrs by luminescence assay; type: functional
SK-MEL-28 = assay: Antiproliferative activity against human SK-MEL-28 cells assessed as growth inhibition incubated for 72 hrs by luminescence assay; type: functional
UACC-62 = assay: Antiproliferative activity against human UACC-62 cells assessed as growth inhibition incubated for 72 hrs by luminescence assay; type: functional
IGROV-1 = assay: Antiproliferative activity against human IGROV-1 cells assessed as growth inhibition incubated for 72 hrs by luminescence assay; type: functional
OVCAR-3 = assay: Antiproliferative activity against human OVCAR-3 cells assessed as growth inhibition incubated for 72 hrs by luminescence assay; type: functional
OVCAR-5 = assay: Antiproliferative activity against human OVCAR-5 cells assessed as growth inhibition incubated for 72 hrs by luminescence assay; type: functional
NCI/ADR-RES = assay: Antiproliferative activity against human NCI/ADR-RES cells assessed as growth inhibition incubated for 72 hrs by luminescence assay; type: functional
MDA-MB-231 = assay: Antiproliferative activity against human MDA-MB-231 cells assessed as growth inhibition incubated for 72 hrs by luminescence assay; type: functional
MDA-MB-468 = assay: Antiproliferative activity against human MDA-MB-468 cells assessed as growth inhibition incubated for 72 hrs by luminescence assay; type: functional
TK-10 = assay: Antiproliferative activity against human TK-10 cells assessed as growth inhibition incubated for 72 hrs by luminescence assay; type: functional
SN12C = assay: Antiproliferative activity against human SN12C cells assessed as growth inhibition incubated for 72 hrs by luminescence assay; type: functional
Histone deacetylase 4 = Histone deacetylase 4 (Homo sapiens, UniProt P56524); assay: Inhibition of HDAC4 (unknown origin) using Boc-Lys(TFA)-AMC as fluorogenic substrate incubated for 30 mins by fluorescence based assay
Histone deacetylase 8 = Histone deacetylase 8 (Homo sapiens, UniProt Q9BY41); assay: Inhibition of HDAC8 (unknown origin) using p53 (379 to 382 residues) (RHKK(Ac-AMC) as fluorogenic substrate incubated for 2 hrs by fluorescence based assay
Histone deacetylase 11 = Histone deacetylase 11 (Homo sapiens, UniProt Q96DB2); assay: Inhibition of HDAC11 (unknown origin) using Boc-Lys(TFA)-AMC as fluorogenic substrate incubated for 30 mins by fluorescence based assay
HCT-116 [3] = assay: Effect on SNAI1 protein expression in human HCT-116 cells at 75 nM measured after 24 hrs by western blot analysis; type: functional, cell-based
[4] = Metabolic stability in monkey liver microsomes assessed as half life incubated for 10 mins by LC-MS/MS analysis; type: ADME, Macaca mulatta, Microsome; conditions: rhesus monkey
[5] = Metabolic stability in dog liver microsomes assessed as half life incubated for 10 mins by LC-MS/MS analysis; type: ADME, Canis lupus familiaris, Microsome
[6] = Metabolic stability in rat liver microsomes assessed as half life incubated for 10 mins by LC-MS/MS analysis; type: ADME, Microsome
[7] = Metabolic stability in human liver microsomes assessed as intrinsic clearance incubated for 10 mins by LC-MS/MS analysis; type: ADME, Microsome; conditions: read-out: CLH
[8] = Metabolic stability in dog liver microsomes assessed as intrinsic clearance incubated for 10 mins by LC-MS/MS analysis; type: ADME, Canis lupus familiaris, Microsome; conditions: read-out: CLH
[9] = Metabolic stability in rat liver microsomes assessed as intrinsic clearance incubated for 10 mins by LC-MS/MS analysis; type: ADME, Microsome; conditions: read-out: CLH
[10] = Metabolic stability in human plasma assessed as half life at 100 uM measured upto 120 mins by LC-MS/MS analysis; type: ADME, cell-free
[11] = Metabolic stability in monkey plasma assessed as half life at 100 uM measured upto 120 mins by LC-MS/MS analysis; type: ADME, cell-free, Macaca mulatta; conditions: rhesus monkey
[12] = Metabolic stability in rat plasma assessed as half life at 100 uM measured upto 120 mins by LC-MS/MS analysis; type: ADME, cell-free
[13] = Metabolic stability in monkey plasma assessed as parent compound remaining at 100 uM measured after 2 hrs by LC-MS/MS analysis; type: ADME, cell-free, Macaca mulatta; conditions: rhesus monkey, read-out: Stability
[14] = Metabolic stability in dog plasma assessed as parent compound remaining at 100 uM measured after 2 hrs by LC-MS/MS analysis; type: ADME, cell-free, Canis lupus familiaris; conditions: read-out: Stability
[15] = Metabolic stability in rat plasma assessed as parent compound remaining at 100 uM measured after 2 hrs by LC-MS/MS analysis; type: ADME, cell-free; conditions: read-out: Stability
[16] = Cmax in Sprague-Dawley rat at 1 mg/kg, iv measured up to 24 hrs by LC-MS/MS analysis; type: ADME, organism-based; parameters: route intravenous, dose 1 mg/kg, time <=24; conditions: in vivo
[17] = Cmax in Sprague-Dawley rat at 10 mg/kg, po measured up to 24 hrs by LC-MS/MS analysis; type: ADME, organism-based; parameters: route oral, dose 10 mg/kg, time <=24; conditions: in vivo
[18] = Volume of distribution at steady state in Sprague-Dawley rat at 1 mg/kg, iv measured up to 24 hrs by LC-MS/MS analysis; type: ADME, organism-based; conditions: in vivo, read-out: Vdss
[19] = Half life in Sprague-Dawley rat at 1 mg/kg, iv measured up to 24 hrs by LC-MS/MS analysis; type: ADME, organism-based; conditions: in vivo
[20] = Oral bioavailability in Sprague-Dawley rat at 10 mg/kg measured up to 24 hrs by LC-MS/MS analysis; type: ADME, organism-based; conditions: in vivo

Chain of Histone deacetylase 4 (P56524 whole entry, the tested form may be a part): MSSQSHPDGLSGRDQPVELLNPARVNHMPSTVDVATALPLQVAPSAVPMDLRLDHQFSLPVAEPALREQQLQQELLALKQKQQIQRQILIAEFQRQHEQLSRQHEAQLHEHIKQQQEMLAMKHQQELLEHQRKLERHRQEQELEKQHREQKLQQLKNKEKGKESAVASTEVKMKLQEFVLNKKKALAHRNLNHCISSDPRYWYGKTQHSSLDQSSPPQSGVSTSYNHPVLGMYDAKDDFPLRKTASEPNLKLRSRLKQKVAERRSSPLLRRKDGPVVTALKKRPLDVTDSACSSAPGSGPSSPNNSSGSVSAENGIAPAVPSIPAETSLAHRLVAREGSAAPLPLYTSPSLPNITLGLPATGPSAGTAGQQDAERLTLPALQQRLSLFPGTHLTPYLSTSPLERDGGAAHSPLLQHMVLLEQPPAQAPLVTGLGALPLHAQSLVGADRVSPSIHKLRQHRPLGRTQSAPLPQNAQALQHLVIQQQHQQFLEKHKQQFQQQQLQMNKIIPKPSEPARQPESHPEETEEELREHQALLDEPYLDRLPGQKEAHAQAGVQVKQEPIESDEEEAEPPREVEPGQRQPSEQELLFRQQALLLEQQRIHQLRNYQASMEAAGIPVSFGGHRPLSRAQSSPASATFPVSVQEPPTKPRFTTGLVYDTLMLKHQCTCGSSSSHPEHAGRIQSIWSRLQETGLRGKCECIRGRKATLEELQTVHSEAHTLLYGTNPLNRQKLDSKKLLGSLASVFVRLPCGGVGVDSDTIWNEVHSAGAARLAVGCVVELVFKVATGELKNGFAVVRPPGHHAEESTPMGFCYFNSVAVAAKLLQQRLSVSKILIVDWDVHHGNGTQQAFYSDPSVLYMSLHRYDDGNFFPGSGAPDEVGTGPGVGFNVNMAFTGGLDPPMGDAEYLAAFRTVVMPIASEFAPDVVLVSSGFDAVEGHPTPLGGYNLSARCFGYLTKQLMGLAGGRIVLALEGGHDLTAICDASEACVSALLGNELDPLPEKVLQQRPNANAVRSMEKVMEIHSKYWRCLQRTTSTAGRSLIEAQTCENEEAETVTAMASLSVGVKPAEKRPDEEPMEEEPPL
Chain of Histone deacetylase 1 (Q13547 whole entry, the tested form may be a part): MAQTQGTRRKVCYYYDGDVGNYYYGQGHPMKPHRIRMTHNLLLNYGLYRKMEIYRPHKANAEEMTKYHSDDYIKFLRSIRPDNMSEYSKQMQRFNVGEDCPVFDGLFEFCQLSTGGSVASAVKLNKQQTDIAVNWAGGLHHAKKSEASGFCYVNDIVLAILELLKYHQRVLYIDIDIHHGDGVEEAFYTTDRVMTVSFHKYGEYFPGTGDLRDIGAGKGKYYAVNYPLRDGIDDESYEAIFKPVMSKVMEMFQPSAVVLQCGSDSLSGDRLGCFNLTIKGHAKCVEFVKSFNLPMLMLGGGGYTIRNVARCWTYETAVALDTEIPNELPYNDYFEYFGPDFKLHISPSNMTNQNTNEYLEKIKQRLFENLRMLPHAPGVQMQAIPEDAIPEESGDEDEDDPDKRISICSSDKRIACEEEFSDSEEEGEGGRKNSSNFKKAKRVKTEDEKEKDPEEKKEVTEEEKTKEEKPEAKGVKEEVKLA
Chain of Histone deacetylase 8 (Q9BY41 whole entry, the tested form may be a part): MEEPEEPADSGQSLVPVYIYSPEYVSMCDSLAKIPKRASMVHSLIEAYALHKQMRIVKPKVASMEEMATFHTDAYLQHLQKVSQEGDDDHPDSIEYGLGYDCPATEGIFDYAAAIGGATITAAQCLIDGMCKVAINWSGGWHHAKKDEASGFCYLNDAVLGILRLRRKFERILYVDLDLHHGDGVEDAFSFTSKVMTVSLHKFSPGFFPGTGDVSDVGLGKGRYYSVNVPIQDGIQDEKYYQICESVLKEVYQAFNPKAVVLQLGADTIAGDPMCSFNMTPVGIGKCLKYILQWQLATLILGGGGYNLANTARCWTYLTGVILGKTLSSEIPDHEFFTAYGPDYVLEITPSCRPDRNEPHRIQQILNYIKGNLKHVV
Chain of Histone deacetylase 11 (Q96DB2 whole entry): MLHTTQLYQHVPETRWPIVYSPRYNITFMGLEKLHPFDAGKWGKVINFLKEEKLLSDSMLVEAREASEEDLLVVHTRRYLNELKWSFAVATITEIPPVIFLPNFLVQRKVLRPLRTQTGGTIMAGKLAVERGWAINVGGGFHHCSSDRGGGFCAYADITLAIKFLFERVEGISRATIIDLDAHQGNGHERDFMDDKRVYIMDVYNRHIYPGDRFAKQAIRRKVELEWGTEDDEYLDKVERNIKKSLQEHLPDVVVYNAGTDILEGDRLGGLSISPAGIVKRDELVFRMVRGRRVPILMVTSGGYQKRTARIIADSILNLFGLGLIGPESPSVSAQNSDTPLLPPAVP

Work on `Cc1cc(Nc2nc(SCc3ccc(C(=O)Nc4ccc(F)cc4N)cc3)nn3cccc23)n[nH]1` yielded an IC50 (Histone deacetylase 1) of 405 nM, a Kd [1] of 180 nM and a GI50 (CCRF-CEM) of 411 nM. The GI50 (A549) was 886 nM, the GI50 (EKVX) was 919 nM and the GI50 (NCI-H226) was 2700 nM. The GI50 (NCI-H522) was 48.8 nM, the GI50 (HCT-116 [2]) was 494 nM and the GI50 (HCT-15) was 424 nM. For the same molecule, the GI50 (KM12) was 284 nM, the GI50 (SF-295) was 354 nM and the GI50 (SNB-75) was 198 nM. It also gave a GI50 (U-251) of 343 nM, a GI50 (MDA-MB-435) of 36.1 nM and a GI50 (SK-MEL-2) of 617 nM. It also gave a GI50 (SK-MEL-28) of 2830 nM, a GI50 (UACC-62) of 347 nM and a GI50 (IGROV-1) of 558 nM. The GI50 (OVCAR-3) was 202 nM, the GI50 (OVCAR-5) was 657 nM and the GI50 (NCI/ADR-RES) was 1980 nM. It also gave a GI50 (MDA-MB-231) of 854 nM, a GI50 (MDA-MB-468) of 432 nM and a GI50 (TK-10) of 1210 nM. For the same molecule, the GI50 (SN12C) was 1250 nM, the IC50 (Histone deacetylase 4) was greater than 10 µM and the IC50 (Histone deacetylase 8) was greater than 10 µM. The IC50 (Histone deacetylase 11) was greater than 10 µM, the Activity (HCT-116 [3]) was “Active” and the half-life [4] was 27.8 min. The half-life [5] was 52.1 min, the half-life [6] was 12.6 min and the microsomal CLint [7] was 20.9 µL/min/mg. It also gave a microsomal CLint [8] of 26.6 µL/min/mg, a microsomal CLint [9] of 110 µL/min/mg and a half-life at 100 µM [10] of 337 min. It also gave a half-life at 100 µM [11] of 330 min, a half-life at 100 µM [12] of 515 min and a remaining at 2 h, 100 µM [13] of 82.4%. For the same molecule, the remaining at 2 h, 100 µM [14] was 85.7%, the remaining at 2 h, 100 µM [15] was 105% and the Cmax [16] was 144 ng/mL. For the same molecule, the Cmax [17] was 6.61 ng/mL, the Vd [18] was 1.06 L/kg and the t1/2 [19] was 18.2 min. For the same molecule, the F [20] was 7.3%.
